Assay results: PubChem BioAssay AID248 (DTP/NCI, 2004)
Toxic doses and inconclusive results are not listed.

Test system: L1210 leukemia ip in BDF1 mice, survival T/C
Experiment: NCI In Vivo Anticancer Drug Screen. Data for tumor model L1210 Leukemia (intraperitoneal) in B6D2F1 (BDF1) mice
Conditions: endpoint: mean survival time, higher = longer survival
How it was run: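 Tumor was transplanted into mice, which were then dosed with test compound or vehicle alone. Survival was recorded for each group, and the treated figure was expressed relative to the control figure.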

[1] = dose: 200.0 mg/kg/injection, schedule: Q04DX002 (ip), vehicle: Klucel (hydroxypropylcellulose) (HPC)
[2] = dose: 400.0 mg/kg/injection, schedule: Q04DX002 (ip), vehicle: Klucel (hydroxypropylcellulose) (HPC)
[3] = dose: 100.0 mg/kg/injection, schedule: Q01DX009 (ip), vehicle: saline
[4] = dose: 200.0 mg/kg/injection, schedule: Q01DX009 (ip), vehicle: saline
[5] = dose: 100.0 mg/kg/injection, schedule: Q04DX003 (ip), vehicle: saline
[6] = dose: 200.0 mg/kg/injection, schedule: Q04DX003 (ip), vehicle: saline
[7] = dose: 400.0 mg/kg/injection, schedule: Q04DX003 (ip), vehicle: saline

Compound: CC(C)C1(C)C(=O)N(C)C(=O)N1Br (stereo unspecified)
- T/C (dose: 50.0 mg/kg/injection, schedule: Q01DX009 (ip), vehicle: Klucel (hydroxypropylcellulose) (HPC)): 102 % of control
- T/C (dose: 50.0 mg/kg/injection, schedule: Q04DX003 (ip), vehicle: Klucel (hydroxypropylcellulose) (HPC)): 100 % of control
- T/C (dose: 100.0 mg/kg/injection, schedule: Q01DX001 (ip), vehicle: Klucel (hydroxypropylcellulose) (HPC)): 107 % of control
- T/C (dose: 100.0 mg/kg/injection, schedule: Q01DX009 (ip), vehicle: Klucel (hydroxypropylcellulose) (HPC)): 96 % of control
- T/C (dose: 100.0 mg/kg/injection, schedule: Q04DX003 (ip), vehicle: Klucel (hydroxypropylcellulose) (HPC)): 97 % of control
- T/C (dose: 200.0 mg/kg/injection, schedule: Q01DX001 (ip), vehicle: Klucel (hydroxypropylcellulose) (HPC)): 98 % of control
- T/C (dose: 200.0 mg/kg/injection, schedule: Q04DX003 (ip), vehicle: Klucel (hydroxypropylcellulose) (HPC)): 105 % of control
- T/C (dose: 400.0 mg/kg/injection, schedule: Q01DX001 (ip), vehicle: Klucel (hydroxypropylcellulose) (HPC)): 98 % of control

Compound: O=C(O)c1cccc(-c2ccccc2)c1O
- T/C (dose: 100.0 mg/kg/injection, schedule: Q01DX001 (ip), vehicle: saline): 97 % of control
- T/C (dose: 200.0 mg/kg/injection, schedule: Q01DX001 (ip), vehicle: saline): 102 % of control

Compound: NC(=O)C1C(c2ccccc2)C1c1ccccc1 (stereo unspecified)
- T/C (dose: 100.0 mg/kg/injection, schedule: Q04DX002 (ip), vehicle: Klucel (hydroxypropylcellulose) (HPC)): 97 % of control
- T/C [1]: 102 % of control
- T/C [2]: 94 % of control

Compound: CN(C)P(=O)(N(C)C)N(C)C.[Cl][Al]([Cl])[Cl]
- T/C (dose: 50.0 mg/kg/injection, schedule: Q01DX009 (ip), vehicle: saline): 91 % of control
- T/C [3]: 88 % of control
- T/C [4]: 95 % of control

Compound: CCC(C)C(C)(CO)CO (stereo unspecified)
- T/C (dose: 100.0 mg/kg/injection, schedule: Q01DX009 (ip), vehicle: saline with Tween-80): 102 % of control
- T/C [5]: 90 % of control
- T/C (dose: 200.0 mg/kg/injection, schedule: Q01DX009 (ip), vehicle: saline with Tween-80): 88 % of control
- T/C [6]: 93 % of control
- T/C (dose: 400.0 mg/kg/injection, schedule: Q01DX009 (ip), vehicle: saline with Tween-80): 89 % of control
- T/C [7]: 97 % of control

Compound: COc1ccc(OC(C)OCCOCCO)cc1 (stereo unspecified)
- T/C (dose: 100.0 mg/kg/injection, schedule: Q04DX002 (ip), vehicle: saline): 107 % of control
- T/C (dose: 200.0 mg/kg/injection, schedule: Q04DX002 (ip), vehicle: saline): 93 % of control
- T/C (dose: 400.0 mg/kg/injection, schedule: Q04DX002 (ip), vehicle: saline): 107 % of control

Compound: S=c1nc[nH]c2c1ncn2Cc1ccc(Cl)c(Cl)c1
- T/C [1]: 94 % of control
- T/C [2]: 108 % of control

Compound: CCCCCCc1cc(N=Nc2ccc(S(=O)(=O)Nc3nccc(C)n3)cc2)c(O)cc1O
- T/C (dose: 100.0 mg/kg/injection, schedule: Q01DX001 (ip), vehicle: carboxymethylcellulose (CMC)): 95 % of control
- T/C (dose: 200.0 mg/kg/injection, schedule: Q01DX001 (ip), vehicle: carboxymethylcellulose (CMC)): 98 % of control
- T/C (dose: 400.0 mg/kg/injection, schedule: Q01DX001 (ip), vehicle: carboxymethylcellulose (CMC)): 93 % of control

Compound: CC(C)(CCC#N)C1OCCO1
- T/C [3]: 106 % of control
- T/C [5]: 98 % of control
- T/C [4]: 102 % of control
- T/C [6]: 105 % of control
- T/C (dose: 400.0 mg/kg/injection, schedule: Q01DX009 (ip), vehicle: saline): 102 % of control
- T/C [7]: 96 % of control

Compound: O=C(CCCCC(=O)Nc1ccc(C(=O)Nc2cc(C3=NCCN3)cc(C3=NCCN3)c2)cc1)Nc1ccc(C(=O)Nc2cc(C3=NCCN3)cc(C3=NCCN3)c2)cc1
- T/C (dose: 35.0 mg/kg/injection, schedule: Q01DX Z (ip), vehicle: saline): 102 % of control
- T/C (dose: 55.0 mg/kg/injection, schedule: Q01DX Z (ip), vehicle: saline): 103 % of control

Compound: CC1(C#N)CCc2c(ccc3ccccc23)C1=O (stereo unspecified)
- T/C [3]: 95 % of control
- T/C [5]: 96 % of control
- T/C [4]: 95 % of control
- T/C [6]: 94 % of control
- T/C [7]: 101 % of control

Compound: NC(=S)c1nn(C2OC(CO)C(O)C2O)c2ncnc(N)c12 (stereo unspecified)
- T/C (dose: 0.78 mg/kg/injection, schedule: Q01DX009 (ip), vehicle: saline): 122 % of control
- T/C (dose: 3.12 mg/kg/injection, schedule: Q01DX009 (ip), vehicle: saline): 173 % of control
- T/C (dose: 6.25 mg/kg/injection, schedule: Q01DX009 (ip), vehicle: saline): 89 % of control
